Assay results published in article PMC4867616, “Imaging of Cerebral Amyloid Angiopathy with Bivalent ^99mTc-Hydroxamamide Complexes” (Scientific Reports, 2016).
Several values for one entry are separate records, joined by “and”; a condition that tells them apart may be missing. Equal values may be shown once. Blank lines part the entries; values can stand above or below the compound they belong to.

Tests used:
[1] = Ex vivo biodistribution in normal mice; parameters: species or system ddY mice; settings: i.v., mean (SD), 5 animals
Protocol: To evaluate brain uptake of ^99mTc-Ham complexes, biodistribution experiments of ^99mTc-Ham complexes were performed in normal mice. We selected ^18F-florbetapir as a control and compared the results of ^99mTc-Ham complexes with that of ^18F-florbetapir (Fig. 2). The brain uptake of [^99mTc]SB1A, [^99mTc]SB2A, [^99mTc]BT1B, and [^99mTc]BT2B at 2 min postinjection was 0.37, 0.28, 0.36, and 0.37% injected dose (ID)/g, respectively. The radioactivity in the brains remained low until 60 min postinjection. The results of the biodistribution study are shown in Table S1 in Supplementary information.
A saline solution (100 μL) of ^99mTc-Ham complexes (20 kBq) containing EtOH (10 μL) was injected directly into the tail vein of ddY mice (male, 5 weeks old). The mice were sacrificed at 2, 10, 30, and 60 min postinjection. The organs of interest were removed and weighed, and radioactivity was measured using a γ counter (PerkinElmer). The %ID/g of samples was calculated by comparing the sample counts with the count of the diluted initial dose.
*Corresponding author: M. Ono. Address: 46-29 Yoshida Shimoadachi-cho, Sakyo-ku, Kyoto 606-8501, Japan, Phone: +81-75-753-4608, Fax: +81-75-753-4568, E-mail: ono@pharm.kyoto-u.ac.jp. Ex vivo biodistribution in normal mice. A saline solution (100 μL) of ^99mTc-Ham complexes (20 kBq) containing EtOH (10 μL) was injected directly into the tail vein of ddY mice (male, 5 weeks old). The mice were sacrificed at 2, 10, 30, and 60 min postinjection. The organs of interest were removed and weighed, and radioactivity was measured using a γ counter (Wallac 1470 Wizard; PerkinElmer, Massachusetts, USA). Percentage dose per organ was calculated by comparing the tissue counts to suitably diluted aliquots of the injected material. The %dose/g of samples was calculated by comparing the sample counts with the count of the diluted initial dose.

[2] = molecular target: T1, Aβ depositions in Tg2576 mouse brain (Homo sapiens, UniProt P05067); experiment: Ex vivo autoradiography using Tg2576 and wild-type mice; format: in vivo; settings: for Selectivity for vascular versus parenchymal amyloid aggregates (ex vivo autoradiography, thioflavin-S and anti-CD31 staining): Tg2576 mice, 30 min postinjection
T1 construct: Aβ(1–40) aggregates, the predominant amyloid found in CAA; tissue Taconic Farms, Inc. (New York, USA); host or cells: brain of living female Tg2576 transgenic mice
Protocol: Tg2576 transgenic mice (female, 29 months old) and wild-type mice (female, 29 months old) were used as the AD model and age-matched control, respectively. A saline solution (150 μL) of [^99mTc]SB2A or [^99mTc]BT2B (18.5 MBq) containing EtOH (30 μL) was injected through the tail vein. The mice were sacrificed at 30 min postinjection. The brains were immediately removed, embedded in carboxymethylcellulose solution and then frozen in a dry ice/hexane bath. Sections of 30 μm were cut and exposed to a BAS imaging plate (Fuji Film) overnight. Autoradiographic images were obtained using a BAS5000 scanner system (Fuji Film). After autoradiographic examination, the same sections were stained by thioflavin-S to confirm the presence of Aβ depositions. For thioflavin-S fluorescent staining, the sections were immersed in a 100 μM thioflavin-S solution containing 50% EtOH for 3 min, washed in 50% EtOH for 1 min two times, and examined using a microscope (Keyence Corp.) equipped with a GFP-BP filter set. Additionally, the same sections were immunostained by anti-CD31 antibody to confirm the presence of endothelial cells. For immunohistochemical staining of CD31, the sections were incubated in PBST for 5 min three times, and incubated with anti-CD31 primary antibody (SZ31; Abcam, Cambridgeshire, U.K., dilution 1:50) at room temperature overnight. After three 5-min incubations in PBST, anti-rabbit secondary antibody (Dako, California, USA) incubation was carried out at room temperature for 3 h. Subsequently, the sections were incubated in PBST for 5 min three times, and incubated with diaminobenzidine (Merck) as a chromogen for 5 min. After washing with water, the sections were observed under a microscope (Keyence Corp.).
Ex vivo autoradiography using Tg2576 and wild-type mice. Tg2576 transgenic mice (female, 29 months old) and wild-type mice (female, 29 months old) were used as the Alzheimer’s model and age-matched control, respectively. A saline solution (150 µL) of [^99mTc]BT2B (18.5 MBq) containing ethanol (30 µL) was injected through the tail vein. […]

T1 sequence (P05067 672-711 limits assumed): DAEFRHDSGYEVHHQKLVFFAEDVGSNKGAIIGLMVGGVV

Biodistribution of radioactivity, Heart ([1]; 2 min after injection): 12.64 (1.59) % injected dose per gram
Biodistribution of radioactivity, Intestine ([1]; 2 min after injection): 1.52 (0.25) % injected dose per gram
Biodistribution of radioactivity, Kidney ([1]; 2 min after injection): 5.03 (0.52) % injected dose per gram
Biodistribution of radioactivity, Liver ([1]; 2 min after injection): 25.52 (1.67) % injected dose per gram
Biodistribution of radioactivity, Lung ([1]; 2 min after injection): 14.35 (1.86) % injected dose per gram
Biodistribution of radioactivity, Pancreas ([1]; 2 min after injection): 3.35 (0.60) % injected dose per gram
Biodistribution of radioactivity, Spleen ([1]; 2 min after injection): 10.76 (0.96) % injected dose per gram
Biodistribution of radioactivity, Stomach ([1]; 2 min after injection): 3.15 (0.56) % injected dose per organ
Biodistribution of radioactivity, Heart ([1]; 10 min after injection): 6.57 (0.92) % injected dose per gram
Biodistribution of radioactivity, Intestine ([1]; 10 min after injection): 1.71 (0.11) % injected dose per gram
Biodistribution of radioactivity, Kidney ([1]; 10 min after injection): 3.57 (0.41) % injected dose per gram
Biodistribution of radioactivity, Liver ([1]; 10 min after injection): 29.35 (2.85) % injected dose per gram
Biodistribution of radioactivity, Lung ([1]; 10 min after injection): 7.79 (0.50) % injected dose per gram
Biodistribution of radioactivity, Pancreas ([1]; 10 min after injection): 2.12 (0.08) % injected dose per gram
Biodistribution of radioactivity, Spleen ([1]; 10 min after injection): 11.24 (2.26) % injected dose per gram
Biodistribution of radioactivity, Stomach ([1]; 10 min after injection): 8.78 (1.32) % injected dose per organ
Biodistribution of radioactivity, Heart ([1]; 30 min after injection): 8.58 (1.32) % injected dose per gram
Biodistribution of radioactivity, Intestine ([1]; 30 min after injection): 2.64 (0.36) % injected dose per gram
Biodistribution of radioactivity, Kidney ([1]; 30 min after injection): 3.61 (0.29) % injected dose per gram
Biodistribution of radioactivity, Liver ([1]; 30 min after injection): 27.04 (3.90) % injected dose per gram
Biodistribution of radioactivity, Lung ([1]; 30 min after injection): 7.26 (1.02) % injected dose per gram
Biodistribution of radioactivity, Pancreas ([1]; 30 min after injection): 2.06 (0.11) % injected dose per gram
Biodistribution of radioactivity, Spleen ([1]; 30 min after injection): 8.91 (3.26) % injected dose per gram
Biodistribution of radioactivity, Stomach ([1]; 30 min after injection): 16.13 (2.33) % injected dose per organ
Biodistribution of radioactivity, Heart ([1]; 60 min after injection): 8.27 (1.19) % injected dose per gram
Biodistribution of radioactivity, Intestine ([1]; 60 min after injection): 4.05 (0.55) % injected dose per gram
Biodistribution of radioactivity, Kidney ([1]; 60 min after injection): 3.39 (0.20) % injected dose per gram
Biodistribution of radioactivity, Liver ([1]; 60 min after injection): 24.95 (3.38) % injected dose per gram
Biodistribution of radioactivity, Lung ([1]; 60 min after injection): 6.48 (0.49) % injected dose per gram
Biodistribution of radioactivity, Pancreas ([1]; 60 min after injection): 1.83 (0.07) % injected dose per gram
Biodistribution of radioactivity, Spleen ([1]; 60 min after injection): 7.58 (2.60) % injected dose per gram
Biodistribution of radioactivity, Stomach ([1]; 60 min after injection): 14.72 (4.51) % injected dose per organ
Ex vivo autoradiography labeling of Aβ depositions in transgenic mice ([2]; Tg2576 mice (29 months old) vs wild-type, i.v., brains removed at 30 min postinjection): intensive labeling of Aβ depositions
SMILES: CN(C)c1ccc(/C=C/c2ccc(C3=N[O][99Tc-]4(=[O])([NH]3)[NH2+]C(c3ccc(/C=C/c5ccc(N(C)C)cc5)cc3)=N[O]4)cc2)cc1 (single isomer, unassigned) [[^99mTc]SB2A]
Selectivity for vascular versus parenchymal amyloid aggregates (ex vivo autoradiography, thioflavin-S and anti-CD31 staining) [2]: selectively bound to amyloid aggregates deposited along vessels but not within parenchyma

Biodistribution of radioactivity, Blood ([1]; 2 min after injection): 23.15 (4.78) % injected dose per gram
Biodistribution of radioactivity, Heart ([1]; 2 min after injection): 9.48 (4.83) % injected dose per gram
Biodistribution of radioactivity, Intestine ([1]; 2 min after injection): 1.32 (0.21) % injected dose per gram
Biodistribution of radioactivity, Kidney ([1]; 2 min after injection): 6.04 (0.96) % injected dose per gram
Biodistribution of radioactivity, Liver ([1]; 2 min after injection): 23.21 (5.72) % injected dose per gram
Biodistribution of radioactivity, Lung ([1]; 2 min after injection): 22.06 (3.09) % injected dose per gram
Biodistribution of radioactivity, Pancreas ([1]; 2 min after injection): 2.81 (0.35) % injected dose per gram
Biodistribution of radioactivity, Spleen ([1]; 2 min after injection): 10.83 (1.58) % injected dose per gram
Biodistribution of radioactivity, Stomach ([1]; 2 min after injection): 0.69 (0.12) % injected dose per organ
Biodistribution of radioactivity, Blood ([1]; 10 min after injection): 10.05 (1.78) % injected dose per gram
Biodistribution of radioactivity, Brain ([1]; 10 min after injection): 0.20 (0.04) % injected dose per gram
Biodistribution of radioactivity, Heart ([1]; 10 min after injection): 8.62 (2.34) % injected dose per gram
Biodistribution of radioactivity, Intestine ([1]; 10 min after injection): 1.97 (0.26) % injected dose per gram
Biodistribution of radioactivity, Kidney ([1]; 10 min after injection): 5.02 (0.40) % injected dose per gram
Biodistribution of radioactivity, Liver ([1]; 10 min after injection): 33.78 (6.07) % injected dose per gram
Biodistribution of radioactivity, Lung ([1]; 10 min after injection): 11.97 (1.01) % injected dose per gram
Biodistribution of radioactivity, Pancreas ([1]; 10 min after injection): 2.19 (0.35) % injected dose per gram
Biodistribution of radioactivity, Spleen ([1]; 10 min after injection): 14.49 (3.50) % injected dose per gram
Biodistribution of radioactivity, Stomach ([1]; 10 min after injection): 3.77 (0.56) % injected dose per organ
Biodistribution of radioactivity, Blood ([1]; 30 min after injection): 3.72 (0.49) % injected dose per gram
Biodistribution of radioactivity, Brain ([1]; 30 min after injection): 0.10 (0.02) % injected dose per gram
Biodistribution of radioactivity, Heart ([1]; 30 min after injection): 6.67 (1.52) % injected dose per gram
Biodistribution of radioactivity, Intestine ([1]; 30 min after injection): 6.44 (1.04) % injected dose per gram
Biodistribution of radioactivity, Kidney ([1]; 30 min after injection): 3.47 (0.57) % injected dose per gram
Biodistribution of radioactivity, Liver ([1]; 30 min after injection): 31.45 (3.39) % injected dose per gram
Biodistribution of radioactivity, Lung ([1]; 30 min after injection): 5.38 (1.16) % injected dose per gram
Biodistribution of radioactivity, Pancreas ([1]; 30 min after injection): 1.14 (0.25) % injected dose per gram
Biodistribution of radioactivity, Spleen ([1]; 30 min after injection): 10.91 (1.59) % injected dose per gram
Biodistribution of radioactivity, Stomach ([1]; 30 min after injection): 6.47 (1.37) % injected dose per organ
Biodistribution of radioactivity, Blood ([1]; 60 min after injection): 1.81 (0.44) % injected dose per gram
Biodistribution of radioactivity, Brain ([1]; 60 min after injection): 0.05 (0.01) % injected dose per gram
Biodistribution of radioactivity, Heart ([1]; 60 min after injection): 7.08 (1.34) % injected dose per gram
Biodistribution of radioactivity, Intestine ([1]; 60 min after injection): 13.90 (1.52) % injected dose per gram
Biodistribution of radioactivity, Kidney ([1]; 60 min after injection): 3.13 (0.48) % injected dose per gram
Biodistribution of radioactivity, Liver ([1]; 60 min after injection): 35.76 (3.34) % injected dose per gram
Biodistribution of radioactivity, Lung ([1]; 60 min after injection): 4.50 (0.60) % injected dose per gram
Biodistribution of radioactivity, Pancreas ([1]; 60 min after injection): 1.27 (0.28) % injected dose per gram
Biodistribution of radioactivity, Spleen ([1]; 60 min after injection): 4.80 (0.63) % injected dose per gram
Biodistribution of radioactivity, Stomach ([1]; 60 min after injection): 4.20 (1.21) % injected dose per organ
Selectivity for vascular versus parenchymal amyloid aggregates (ex vivo autoradiography, thioflavin-S and anti-CD31 staining) [2]: specific detection of CAA
SMILES: CN(C)c1ccc(-c2nc3ccc(C4=N[O][99Tc-]5(=[O])([NH]4)[NH2+]C(c4ccc6nc(-c7ccc(N(C)C)cc7)sc6c4)=N[O]5)cc3s2)cc1 [[^99mTc]BT2B]
Biodistribution of radioactivity, Brain ([1]; 2 min after injection): 0.37 % injected dose per gram and 0.37 (0.11) % injected dose per gram
